Results published in the CheMixHub ionic liquid set.
± gives the uncertainty stated by the source. One block for each molecule: values may come before it.

Assay: xn = mol fraction of the nth substance listed

Structure (SMILES): CCCC[n+]1ccn(C)c1.COP(=O)([O-])OC + CCO
- viscosity (293.15 K, 101 kPa, x2 = 0.399): 150.9 ± 6.7 mPa·s
- viscosity (298.15 K, 101 kPa, x2 = 0.399): 114.4 ± 3.6 mPa·s
- viscosity (308.15 K, 101 kPa, x2 = 0.201): 155.7 ± 6.5 mPa·s
- viscosity (308.15 K, 101 kPa, x2 = 0.8): 5.933 ± 0.068 mPa·s
- viscosity (313.15 K, 101 kPa, x2 = 0.399): 55.65 ± 0.58 mPa·s
- viscosity (313.15 K, 101 kPa, x2 = 0.8): 5.272 ± 0.061 mPa·s
- viscosity (318.15 K, 101 kPa, x2 = 0.399): 45.2 ± 0.56 mPa·s
- viscosity (323.15 K, 101 kPa, x2 = 0.399): 37.08 ± 0.44 mPa·s
- viscosity (323.15 K, 101 kPa, x2 = 0.8): 4.227 ± 0.049 mPa·s
- viscosity (328.15 K, 101 kPa, x2 = 0.399): 30.89 ± 0.36 mPa·s
- viscosity (328.15 K, 101 kPa, x2 = 0.8): 3.811 ± 0.045 mPa·s
- viscosity (333.15 K, 101 kPa, x2 = 0.399): 25.94 ± 0.26 mPa·s

- viscosity (296.1 K, 101.3 kPa, x2 = 0.4, x1 = 0.2): 55000 mPa·s
Structure (SMILES): [Cl-].[Cl-].[Co+2] + CCCCCCCC[N+](CCCCCCCC)(CCCCCCCC)CCCCCCCC.[Br-] + CCCCCCCCCC(=O)O

Structure (SMILES): CCCCCCCC[n+]1ccn(C)c1.F[P-](F)(F)(F)(F)F + O
- viscosity (293.15 K, 101 kPa, x2 = 0.212): 500 ± 93 mPa·s
- electrical conductivity (295.15 K, 101 kPa, x2 = 0.212): 0.12 ± 0.02 S/m

Structure (SMILES): CCCC[N+]1(C)CCCC1.N#C[N-]S(=O)(=O)C(F)(F)F + N#C[N-]S(=O)(=O)C(F)(F)F.[Li+]
- electrical conductivity (308 K, 101 kPa, frequency 0 MHz, x2 = 0): 0.644 ± 0.065 S/m
- viscosity (308 K, 101 kPa, x2 = 0): 33.6 ± 1.7 mPa·s
- electrical conductivity (313 K, 101 kPa, frequency 0 MHz, x2 = 0): 0.752 ± 0.075 S/m
- viscosity (313 K, 101 kPa, x2 = 0): 28.6 ± 1.5 mPa·s

Structure (SMILES): CC[N+](C)(CC)CCOC.O=S(=O)([N-]S(=O)(=O)C(F)(F)F)C(F)(F)F + CCCCn1cc[n+](C)c1C.O=S(=O)([N-]S(=O)(=O)C(F)(F)F)C(F)(F)F
- electrical conductivity (293.15 K, 100 kPa, x1 = 0.2): 0.192 ± 0.012 S/m
- electrical conductivity (293.15 K, 100 kPa, x1 = 0.5): 0.202 ± 0.012 S/m
- electrical conductivity (298.15 K, 100 kPa, x1 = 0.2): 0.256 ± 0.015 S/m
- electrical conductivity (313.15 K, 100 kPa, x1 = 0.5): 0.517 ± 0.031 S/m
- electrical conductivity (313.15 K, 100 kPa, x1 = 0.7): 0.527 ± 0.032 S/m
- electrical conductivity (318.15 K, 100 kPa, x1 = 0.2): 0.594 ± 0.036 S/m
- electrical conductivity (323.15 K, 100 kPa, x1 = 0.7): 0.755 ± 0.045 S/m
- electrical conductivity (328.15 K, 100 kPa, x1 = 0.1): 0.82 ± 0.049 S/m
- electrical conductivity (328.15 K, 100 kPa, x1 = 0.3): 0.845 ± 0.051 S/m
- electrical conductivity (328.15 K, 100 kPa, x1 = 0.4): 0.847 ± 0.051 S/m
- electrical conductivity (333.15 K, 100 kPa, x1 = 0.6): 0.999 ± 0.06 S/m
- electrical conductivity (343.15 K, 100 kPa, x1 = 0.1): 1.24 ± 0.074 S/m
- electrical conductivity (343.15 K, 100 kPa, x1 = 0.2): 1.24 ± 0.074 S/m

Structure (SMILES): CCOS(=O)(=O)[O-].CC[N+]1(C)CCOCC1 + O
- viscosity (313.15 K, 101 kPa, x2 = 0.193): 750 ± 140 mPa·s
- viscosity (333.15 K, 101 kPa, x2 = 0.3681): 81 ± 13 mPa·s
- viscosity (333.15 K, 101 kPa, x2 = 0.7786): 6.7 ± 1.1 mPa·s
- viscosity (343.15 K, 101 kPa, x2 = 0.6835): 9.5 ± 1.5 mPa·s

Structure (SMILES): CCCCCC[n+]1ccn(C)c1.O=S(=O)([O-])C(F)(F)F + CC(C)O
- viscosity (293.15 K, 100 kPa, x2 = 0.9231): 3.79 ± 0.38 mPa·s
- viscosity (298.15 K, 100 kPa, x2 = 0.1282): 99 ± 10 mPa·s
- viscosity (298.15 K, 100 kPa, x2 = 0.2454): 67.9 ± 6.8 mPa·s
- viscosity (298.15 K, 100 kPa, x2 = 0.469): 31.4 ± 3.2 mPa·s
- viscosity (303.15 K, 100 kPa, x2 = 0.3506): 41.2 ± 4.1 mPa·s
- viscosity (313.15 K, 100 kPa, x2 = 0.9231): 2.08 ± 0.21 mPa·s

Structure (SMILES): CCCC[n+]1ccn(C)c1.[Cl-] + CCCC[n+]1ccn(C)c1.F[B-](F)(F)F
- viscosity (293 K, 101 kPa, x1 = 0.1015): 201 ± 12 mPa·s

Structure (SMILES): CCCC[n+]1ccn(C)c1.[Cl-] + CCO
- viscosity (293.15 K, 101 kPa, x2 = 0.9501): 1.78 ± 0.39 mPa·s
- electrical conductivity (298.15 K, 101 kPa, x2 = 0.7003): 1.07 ± 0.02 S/m
- viscosity (298.15 K, 101 kPa, x2 = 0.7003): 10.1 ± 1.6 mPa·s
- electrical conductivity (298.15 K, 101 kPa, x2 = 0.8002): 1.45 ± 0.03 S/m
- viscosity (298.15 K, 101 kPa, x2 = 0.8002): 4.59 ± 0.81 mPa·s
- viscosity (303.15 K, 101 kPa, x2 = 0.4991): 49.8 ± 7.6 mPa·s
- viscosity (303.15 K, 101 kPa, x2 = 0.6011): 20.7 ± 3.2 mPa·s
- viscosity (303.15 K, 101 kPa, x2 = 0.9501): 1.47 ± 0.34 mPa·s

Structure (SMILES): CCCCO + CCCC[n+]1ccn(C)c1.O=S(=O)([N-]S(=O)(=O)C(F)(F)F)C(F)(F)F
- viscosity (298 K, 100 kPa, x2 = 0): 2.578 ± 0.018 mPa·s

Structure (SMILES): C1CCC2=NCCCN2CC1 + O=S(=O)([N-]S(=O)(=O)C(F)(F)F)C(F)(F)F.[Li+]
- electrical conductivity (328.15 K, 101 kPa, frequency 0 MHz, x1 = 0.8): 0.00259 ± 3e-05 S/m
- viscosity (328.15 K, 101 kPa, x1 = 0.8): 3336 ± 470 mPa·s
- electrical conductivity (338.15 K, 101 kPa, frequency 0 MHz, x1 = 0.8): 0.00474 ± 6e-05 S/m
- electrical conductivity (348.15 K, 101 kPa, frequency 0 MHz, x1 = 0.8): 0.0114 ± 0.00015 S/m
- viscosity (348.15 K, 101 kPa, x1 = 0.8): 358 ± 24 mPa·s

Structure (SMILES): CCCCCCCCn1cc[n+](C)c1.[Br-] + [Cl-].[Li+] + O
- viscosity (298.15 K, 100 kPa, x2 = 0, x3 = 0.9487): 7.96 ± 0.41 mPa·s
- viscosity (298.15 K, 100 kPa, x2 = 0.00845, x3 = 0.9403): 7.94 ± 0.41 mPa·s
- viscosity (298.15 K, 100 kPa, x2 = 0.0171, x3 = 0.9316): 8.68 ± 0.45 mPa·s
- viscosity (298.15 K, 100 kPa, x2 = 0.02497, x3 = 0.9237): 10.09 ± 0.53 mPa·s
- viscosity (298.15 K, 100 kPa, x2 = 0.03315, x3 = 0.9155): 10.9 ± 0.57 mPa·s
- viscosity (298.15 K, 100 kPa, x2 = 0.04088, x3 = 0.9078): 12.6 ± 0.66 mPa·s
